What was measured:
[1] = system: CCl4-induced fibrosis; experiment: Carbon tetrachloride (CCl4)-induced liver fibrosis mouse model; format: in vivo
Experimental: FIGS. 11A and 11B. Male C57BL/6J mice between 6-8 week old were used in the study. Mice were treated with intraperitoneal injection of 0.5 μl carbon tetrachloride (CCl4) per gram body weight, dissolved in corn oil at a ratio of 1:3, twice a week (Tuesdays and Saturdays) for 5.5 weeks or corn oil control only. […] At the end of the study, livers were either snap frozen or fixed in 10% formalin and stained for H&E, Masson Trichrome (FIG. 11A) and Ki67 (FIG. 11B).
(§1) Total RNA was extracted from the snap frozen liver tissue in TRIzol™ Reagent by Omni Bead Ruptor homogenizer. 1 μg of total RNA was reverse transcribed into first-strand cDNA using an RT2 First Strand Kit (QIAGEN). The resultant cDNA was subjected to qPCR using indicated mouse primers to measure the changes in mRNA expression of indicated mouse genes (FIG. 11A and FIG. 11C).
FIG. 12A: Total protein was extracted from the snap frozen liver tissue in T-PER™ Tissue Protein Extraction Reagent by Omni Bead Ruptor homogenizer. Changes in the phosphorylation levels of indicated proteins were detected in the liver homogenates from the CCl4 in vivo studies by reverse-phase protein array.
FIG. 12B: pSTAT3 levels were detected in the fixed […] tissue by immunohistochemistry. Intensity of staining was quantified by HALO imaging software.

[2] = system: TGFBR1/2; experiment: Kinome-profiling, TGFBR1/2; format: biochemical; conditions: at 500 nM
[3] = cited from earlier work
[4] = system: bleomycin-induced lung fibrosis; experiment: Bleomycin-induced lung fibrosis mouse model; format: in vivo
Experimental: FIG. 6B: Male C57BL/6J mice between 7-10 week old were used in the study. A single dose of 50 IU of bleomycin was given to mouse lung via oropharyngeal aspiration to induce lung fibrosis. […] Mice were sacrificed on Day 28 after bleomycin treatment. Lungs were either snap frozen or fixed in 10% formalin and stained for H&E and Masson Trichrome.
FIG. 6C: H&E and Masson Trichrome staining were evaluated and scored by a board-certified veterinary pathologist.
FIG. 7A: Total protein was extracted from the snap frozen lung tissue in T-PER™ Tissue Protein Extraction Reagent by Omni Bead Ruptor homogenizer. Changes in collagen I and the phosphorylation levels of indicated proteins were detected in the lung homogenates from the bleomycin in vivo studies by reverse-phase protein array.
FIG. 7B: pSTAT3 levels were detected in the fixed lung tissue by immunohistochemistry. Intensity of staining was quantified by HALO imaging software.
as §1, with “FIG. 8: Total” for “Total”, “lung” for “liver”, “genes.” for “genes (FIG. 11A and FIG. 11C).”
A single dose of 25-50 IU of bleomycin was given to mouse lung via oropharyngeal aspiration to induce lung fibrosis. […] Lungs were processed and stained for H&E and Masson Trichrome.

[5] = system: LL47 cells; experiment: Real-time wound healing assay (Incucyte) in lung fibroblasts; format: cell-based; conditions: dose-dependent; human lung fibroblasts
Experimental: (§2) FIG. 5A: LL47 cells were plated on 96-well plates (Essen Image Lock, Essen Instruments). […] Wound closure was monitored with Incucyte Live-Cell Imaging System and software (Essen Instruments) every 2-4 hours for 72 hours. The mean relative wound density of at least three biological replicates was calculated. The wound density correlates with the cell motility.

[6] = system: TGF-β; experiment: Time course of TGF-β-induced phosphorylation of SMAD2 and ERK in IPF-LL29 cells (reverse-phase protein array); format: cell-based, human; conditions: 1 mM OSI-632 as printed, TGF-β 5 ng/ml
Experimental: IPF-LL29, IPF-LL97A, and human lung fibroblast LL47 cell lines were purchased from ATCC. Mouse lung fibroblasts were isolated from the lungs of male C57BL/6J mice. Cells were grown at 37° C. under 5% CO2, 95% ambient atmosphere and maintained in Dulbecco's […] (DMEM) supplemented with 10% FBS (Sigma) and 1% Penn Strep.
FIG. 1B. […] At the end of the experiment, cells were lysed in 2% SDS lysis buffer. Protein levels of phosphorylated SMAD2 and ERK were detected in the cell lysates by reverse-phase protein array.

[7] = system: FGFR; experiment: Kinome-profiling, FGFR; format: biochemical; conditions: at 500 nM
[8] = system: LX2 cells; experiment: Live cell wound healing assay in LX2 cells; format: cell-based, human; conditions: 1 μM; TGFb 6.5 ng/ml; wound closure density at 50 hour
Experimental: LX2 cells were obtained from Sigma Aldrich (Cat #SCC064). LX2 cells were grown at 37° C. under 5% CO2, 95% ambient atmosphere and maintained in Dulbecco's […] (DMEM) supplemented with 10% FBS (Sigma) and 1% Penn Strep.
as §2, with “10A: LX2” for “5A: LL47”, “motility. Plotted is the wound closure density at 50 hour.” for “motility.”

[9] = system: IPF lung fibroblasts; experiment: Collagen contraction assay in lung fibroblasts; format: cell-based, human
Experimental: FIG. 5B: LL-47 cells were cultured in a collagen gel solution in 24-well plate. […] After 24 hours, cell contraction was initiated by releasing the collagen gels from the sides of the culture dishes. The collagen gel size change (contraction index) was measured at various times and quantified with Image Lab.
FIG. 5C: same method as outlined in FIG. 5B. IPF-LL29 and IPF-LL97A cells were cultured in a collagen gel solution. 24 hours later, TGF-β alone or together with indicated drugs was added for 24 hours before cell contraction was initiated. Images shown here were taken 120 hours after the initiation of cell contraction.

NC(=O)c1c(OCc2c(F)cc(Br)cc2F)nsc1NC(=O)NCCCCN1CCCC1 [OSI-632, 3-(4-bromo-2,6-difluoro-benzyloxy)-5-[3-(4-pyrrolidin-1-yl-butyl)-ureido]-isothiazole-4-carboxylic acid amide]
carbon tetrachloride (CCl4)-induced fibrosis ([1]; 80 mg/Kg thrice/week oral gavage, 3 weeks, mice, preliminary data): significant decrease | hepatocyte regeneration measured by Ki67 staining ([1]; livers treated with OSI-632): increased hepatocyte regeneration | CCl4-induced expression of HSC activation marker Acta2 and proliferation stimuli such as Tgfb2 ([1]; mouse liver, qPCR): reverse | reversal of CCl4-induced expression of Loxl1 ([1]; mouse liver, qPCR): 2 fold | reversal of CCl4-induced expression of Timp1 ([1]; mouse liver, qPCR): 5 fold | reversal of CCl4-induced expression of Timp2 ([1]; mouse liver, qPCR): 2 fold | reversal of CCl4-induced expression of Timp3 ([1]; mouse liver, qPCR): ~2 fold | mRNA expression of Col1a1 (qPCR) and protein level of collagen 1 (RPPA), liver ([1]; vs CCl4-only treated controls): significantly decreased | collagen deposition (Masson trichome staining), liver ([1]; vs CCl4 only treated mice): significant reduction | inhibition of TGFBR1/2 [2]: 91% | bleeding and thrombosis toxicity ([3]; as sometimes observed with agents targeting VEGF/VEGFR): neither had toxicity issues of bleeding and thrombosis | adverse events in the liver ([3]; in vivo): nor does it cause any adverse events in the liver | maximal tolerable dose ([3]; phases I and II trials for various cancers): 200 mg/day | safety and tolerability ([3]; phases I and II trials, toxicities primarily low grade and readily managed): safe and well-tolerated | lung fibrosis, scoring of H&E and Masson Trichrome staining by veterinary pathologist ([4]; 50 mg/kg oral, once a day Monday to Friday for 2 weeks, mice): significantly decreased lung fibrosis | lung inflammation, scoring of H&E and Masson Trichrome staining ([4]; bleomycin mouse model): significantly decreased | overall survival ([4]; bleomycin mouse model, OSI-632 treatment): 100% | collagen deposition (Masson trichome staining) ([4]; vs bleomycin only treated mice, 50 mg/kg): significant reduction | phosphorylation of Src, Erk, JNK, S6, Nfκβ, and pSTAT3 in lung ([4]; vs bleomycin-only treated mouse lung tissues, RPPA, IHC): significantly decreased | bleomycin-induced collagen levels and pro-fibrotic factors Fn1, IL-6 and IL-1b in lung ([4]; vs bleomycin-only treated mouse lung tissues, RPPA, qPCR): significantly decreased | motility (cell migration), real-time wound healing assay [5]: potently decreased motility | activity of TGF-β (measured by phosphorylation of SMAD2/3 and Erk) [6]: significantly decreased | inhibition of FGFR [7]: 90% | TGF-β-induced motility of LX2 cells [8]: significantly decreased | contractility in collagen contraction assay ([9]; 0.5 or 1 mM OSI-632 as printed, TGF-β-stimulated): significantly decreased contractility | inhibition of motility and contraction compared with nintedanib or pirfenidone ([9]; collagen contraction assay, IPF-LL29 and IPF-LL97A cells, 120 hours): significantly outperforms inhibition by nintedanib or pirfenidone

— US20230301972A1, “ANTI-FIBROTIC COMPOSITION AND RELATED METHODS” (Fred Hutchinson Cancer Center, priority 2020, published 2023)
